Assay results reported in patent publication US8563741B2, “CDK inhibitors containing a zinc binding moiety” (Curis, Inc., priority 2007, dated 2013).

Tests used:
Assay type in all cases: biochemical
HDAC = HDAC fluorimetric assay kit (AK-500, Biomol), HeLa nuclear extract
Method: HDAC inhibitors were screened using an HDAC fluorimetric assay kit (AK-500, Biomol, Plymouth Meeting, Pa.). […] Each assay was setup as follows: Defrosted all kit components and kept on ice until use. Diluted HeLa nuclear extract 1:29 in Assay Buffer (50 mM Tris/Cl, pH 8.0, 137 mM NaCl, 2.7 mM KCl, 1 mM MgCl2). Prepared dilutions of Trichostatin A (TSA, positive control) and tested compounds in assay buffer (5× of final concentration). Diluted Fluor de LysTM Substrate in assay buffer to 100 uM (50 fold=2× final). Diluted Fluor de LysTM developer concentrate 20-fold (e.g. 50 μl plus 950 μl Assay Buffer) in cold assay buffer. Second, diluted the 0.2 mM Trichostatin A 100-fold in the 1× Developer (e.g. 10 μl in 1 ml; final Trichostatin A concentration in the 1× Developer=2 μM; final concentration after addition to HDAC/Substrate reaction=1 μM). Added Assay buffer, diluted trichostatin A or test inhibitor to appropriate wells of the microtiter plate. Added diluted HeLa extract or other HDAC sample to all wells except for negative controls. Allowed diluted Fluor de LysTM Substrate and the samples in the microtiter plate to equilibrate to assay temperature (e.g. 25 or 37° C. Initiated HDAC reactions by adding diluted substrate (25 μl) to each well and mixing thoroughly. Allowed HDAC reactions to proceed for 1 hour and then stopped them by addition of Fluor de LysTM Developer (50 μl). Incubated plate at room temperature (25° C.) for 10-15 min. Read samples in a microtiter-plate reading fluorimeter capable of excitation at a wavelength in the range 350-380 nm and detection of emitted light in the range 440-460 nm.

CDK2/cyclinE = target: T1, CDK2/cyclinE (Homo sapiens, UniProt P24941); test: CDK activity assay with p33 ATP, CDK2/cyclinE; conditions: 1 μM ATP
T1 construct: C-terminal 6His-tagged, recombinant full-length CDK2 (MW=34 kDa); 6His (C); made in house; host or cells: Sf21 cells (baculovirus)
Method: CDK2/cyclinE (Accession Number for CDK2; EMBL M68520, for cyclinE1; GenBank NM_001238):
C-terminal 6His-tagged, recombinant full-length CDK2 (MW=34 kDa) in complex with N-terminal GST-tagged, recombinant full-length cyclinE1 (MW=74 kDa) were expressed with baculovirus system in Sf21 cells. Recombinant proteins were purified using Ni2+/NTA agarose and the purity of recombinant protein complex was measured to be around 76% by SDS-PAGE and Coomassie blue staining. Specific Activity of recombinant CDK2/cyclinE was 1336 U/mg, where one unit of CDK2/cylinE1 activity is defined as 1 nmol phosphate incorporated into 0.1 mg/ml histone H1 per minute at 30° C. with a final ATP concentration of 100 μM. Enzyme was stored with concentration of 0.1 mg/ml in 50 mM Tris/HCl pH 7.5, 150 mM NaCl, 0.03% Brij-35, 0.1 mM EGTA, 0.2 mM PMSF, 1 mM benzamidine, 0.1% 2-mercaptoethanol, 270 mM sucrose.

CDK6/cyclinD3 = target: T2, CDK6/cyclinD3 (Homo sapiens, UniProt Q00534); test: CDK activity assay with p33 ATP, CDK6/cyclinD3; conditions: 1 μM ATP; read-out: CDK6/cyclinD IC50
T2 construct: N-terminal, 6His-tagged full-length human cdk6 (MW=38 kDa); 6His (N); made in house; host or cells: Sf21 cells
Method: CDK6/cyclinD3 (Accession Number for CDK6; GenBank X66365, for Cyclin D3; EMBL M90814):
N-terminal, 6His-tagged full-length human cdk6 (MW=38 kDa) complexed with N-terminal GST-tagged full-length human cyclin D3 (MW=59 kDa) were expressed in Sf21 cells. Recombinant protein complex was purified using glutathione-agarose and activated with CAK, and repurified with Ni2+/NTA-agarose column. Purity was measured to be at least 68%. Specific Activity was measured to be 39 U/mg, where one unit of cdk6/cyclinD3 activity is defined as 1 nmol phosphate incorporated into 0.1 mg/ml histone H1 per minute at 30° C. with a final ATP concentration of 100 μM. Enzyme was stored at concentration of 0.1 mg/ml in 50 mM Tris-HCl, pH 7.5, 270 mM sucrose, 150 mM NaCl, 1 mM benzamidine, 0.2 mM PMSF, 0.1% 2-mercaptoethanol, 0.1 mM EGTA, 0.03% Brij 35.

T2 sequence (Q00534 whole entry): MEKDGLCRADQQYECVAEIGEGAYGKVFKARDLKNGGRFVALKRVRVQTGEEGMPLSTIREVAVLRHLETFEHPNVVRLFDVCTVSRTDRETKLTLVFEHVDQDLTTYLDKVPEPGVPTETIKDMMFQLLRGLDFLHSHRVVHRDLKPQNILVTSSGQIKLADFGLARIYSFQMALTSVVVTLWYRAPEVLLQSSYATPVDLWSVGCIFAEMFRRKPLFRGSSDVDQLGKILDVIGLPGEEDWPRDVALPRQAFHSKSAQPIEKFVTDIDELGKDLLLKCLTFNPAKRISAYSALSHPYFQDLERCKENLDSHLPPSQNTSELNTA
T2 sequence (P30281 whole entry partner): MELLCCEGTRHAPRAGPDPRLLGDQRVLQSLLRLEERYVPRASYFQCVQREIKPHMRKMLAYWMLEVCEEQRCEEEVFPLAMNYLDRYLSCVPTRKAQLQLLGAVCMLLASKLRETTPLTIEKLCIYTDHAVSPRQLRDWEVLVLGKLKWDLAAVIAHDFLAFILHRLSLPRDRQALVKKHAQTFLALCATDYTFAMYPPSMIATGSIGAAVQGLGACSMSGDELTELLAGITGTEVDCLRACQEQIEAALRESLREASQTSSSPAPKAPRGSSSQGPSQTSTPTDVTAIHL

| Compound | IC50 (HDAC) [nM] | IC50 (CDK2/cyclinE) [nM] | IC50 (CDK6/cyclinD3) [nM] |
| --- | --- | --- | --- |
| CC(C)(C)c1cnc(CSc2cnc(NC(=O)CCCCC(=O)NO)s2)o1 [Compound 6, N^1-(5-((5-tert-butyloxazol-2-yl)methylthio)-thiazol-2-yl)-N^6-hydroxyadipamide] | 100 to 1000 | < 100 | 100 to 1000 |
| CC(C)(C)c1cnc(CSc2cnc(NC(=O)CCCC(=O)NO)s2)o1 [Compound 5, N^1-(5-((5-tert-butyloxazol-2-yl)methylthio)thiazol-2-yl)-N^5-hydroxyglutaramide] | 100 to 1000 | < 100 | 100 to 1000 |
| CC(C)(C)c1cnc(CSc2cnc(NC(=O)CCCNCCC(=O)NO)s2)o1 [Compound 13, N-(5-((5-tert-butyloxazol-2-yl)methylthio)thiazol-2-yl)-4-(3-(hydroxyamino)-3-oxopropylamino)butanamide] | > 10000 | < 100 | 100 to 1000 |
